In series [1] the test system is LNCaP. The series can be described thus: animal or person. The conditions noted are these: Mus musculus, po, 504 h, read-out: TGI.
Description: Antitumor activity against human LNCaP cells xenografted in BALB/c nude mouse assessed as inhibition of tumor growth at 5 mg/kg, po administered once every 4th day for 3 weeks
Series [2] relates to CWR22R. Description: Antitumor activity against human 22Rv1 cells xenografted in BALB/c nude mouse assessed as downregulation of AR-FL level at 2.5 mg/kg, ip administered once every 4th day for 3 weeks. Format: functional, organism-based.
A short description of series [3]: Toxicity in BALB/c nude mouse xenografted with human LNCaP cells assessed as animal weight loss at 5 mg/kg, ip administered once every 4th day for 3 weeks. Format: organism-based. The note with it: in vivo, 504 h. For orientation: In xenograft studies the graft and the host belong to different species.
In series [4] the test system is CWR22R. The series can be described thus: Cytotoxicity against human 22Rv1 cells assessed as inhibition of cell growth incubated for 5 days in presence of AR agonist, R1881 by WST-1 assay. In kind it is functional, cell-based. The note with it: 22Rv1, 120 h. (In general: Tetrazolium assays rely on reduction of a dye to a coloured formazan, in cell work by metabolically active cells.)

In series [5] the test system is LNCaP. Description: Cytotoxicity against AR-positive human LNCaP cells assessed as inhibition of cell growth incubated for 5 days in presence of AR agonist, R1881 in charcoal stripped serum by WST-1 assay. Format: functional, cell-based. The conditions noted are these: 120 h.
The subject of series [6] is CWR22R. The series can be described thus: Antitumor activity against human 22Rv1 cells xenografted in BALB/c nude mouse assessed as downregulation of AR-V7 level at 2.5 mg/kg, ip administered once every 4th day for 3 weeks. Format: functional, organism-based.
A short description of series [7]: Cytotoxicity against human RWPE-1 cells assessed as inhibition of cell growth incubated for 5 days by CCK-8 assay. Format: toxicity, cell-based.
Series [8] has as its system CWR22R. Description: Induction of apoptosis in human 22Rv1 cells assessed as necrotic cells at 100 nM measured for 48 hrs by flow cytometry assay (reference value: 0.19%). In kind it is functional. (A flow cytometer gives signals particle by particle.)
The test system of series [9] is LNCaP. The series can be described thus: Induction of apoptosis in human LNCaP cells assessed as early apoptotic cells at 100 nM measured for 48 hrs by flow cytometry assay (reference value: 1.48%). Format: functional.
The subject of series [10] is CWR22R. Description: Induction of apoptosis in human 22Rv1 cells assessed as necrotic cells at 1000 nM measured for 48 hrs by flow cytometry assay (reference value: 0.19%). In kind it is functional.
Series [11] deals with LNCaP. Description: Induction of apoptosis in human LNCaP cells assessed as viable cells at 1000 nM measured for 48 hrs by flow cytometry assay (reference value: 96.9%). The conditions noted are these: read-out: Activity. Format: functional.
In series [12] the test system is LNCaP. The series can be described thus: Downregulation of AR-regulated FKBP5 protein level in human LNCaP cells measured for 48 hrs in presence of AR agonist, R1881 in charcoal stripped serum by Western blot analysis. Format: functional, cell-based. The note with it: dose 300-1000 nM.
The subject of series [13] is CWR22R. The series can be described thus: Induction of cell cycle arrest in human 22Rv1 cells assessed as accumulation of cells at G2/M phase at 100 to 1000 nM measured for 24 hrs by flow cytometry analysis. The note with it: dose 100-1000 nM. Format: functional, cell-based.
The test system of series [14] is CWR22R. The series can be described thus: Induction of apoptosis in human 22Rv1 cells assessed as late apoptotic cells at 1000 nM measured for 48 hrs by flow cytometry assay (reference value: 3.96%). Format: functional.
Series [15] has as its system LNCaP. The series can be described thus: Downregulation of AR-regulated PSA protein level in human LNCaP cells measured for 48 hrs in presence of AR agonist, R1881 in charcoal stripped serum by Western blot analysis. Format: functional, cell-based. The note with it: dose 300-1000 nM.
For series [16], the target named is T1, Androgen receptor (Homo sapiens) (UniProt P10275).
T1 sequence (whole entry): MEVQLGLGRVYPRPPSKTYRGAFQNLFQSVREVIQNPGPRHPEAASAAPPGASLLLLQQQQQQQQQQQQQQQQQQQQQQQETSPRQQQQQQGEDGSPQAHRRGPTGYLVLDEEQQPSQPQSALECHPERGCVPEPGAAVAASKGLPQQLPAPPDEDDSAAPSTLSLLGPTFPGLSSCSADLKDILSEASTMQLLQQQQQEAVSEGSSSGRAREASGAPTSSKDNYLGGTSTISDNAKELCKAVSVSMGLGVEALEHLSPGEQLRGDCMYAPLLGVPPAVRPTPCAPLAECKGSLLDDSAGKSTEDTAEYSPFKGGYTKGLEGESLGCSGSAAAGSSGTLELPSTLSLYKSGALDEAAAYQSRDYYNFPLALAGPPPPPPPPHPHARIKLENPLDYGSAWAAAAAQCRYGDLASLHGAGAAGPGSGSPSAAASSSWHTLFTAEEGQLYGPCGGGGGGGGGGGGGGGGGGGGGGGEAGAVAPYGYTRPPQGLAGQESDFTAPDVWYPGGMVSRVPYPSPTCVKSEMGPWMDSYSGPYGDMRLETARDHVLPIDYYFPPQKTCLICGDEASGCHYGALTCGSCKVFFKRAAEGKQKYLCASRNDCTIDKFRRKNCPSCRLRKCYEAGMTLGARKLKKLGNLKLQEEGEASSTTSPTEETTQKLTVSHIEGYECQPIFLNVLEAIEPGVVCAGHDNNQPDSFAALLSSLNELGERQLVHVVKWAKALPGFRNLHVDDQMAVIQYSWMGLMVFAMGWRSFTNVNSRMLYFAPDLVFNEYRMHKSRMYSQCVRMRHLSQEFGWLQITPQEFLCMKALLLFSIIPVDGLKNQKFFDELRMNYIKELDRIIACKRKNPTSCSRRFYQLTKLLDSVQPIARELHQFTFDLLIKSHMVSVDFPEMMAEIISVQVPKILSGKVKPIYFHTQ
The series can be described thus: Induction of full length AR degradation in human RWPE-1 cells at 10 uM measured for 24 hrs by Western blot analysis. In kind it is cell-based.

Series [17] relates to LNCaP. The series can be described thus: Induction of apoptosis in human LNCaP cells assessed as viable cells at 100 nM measured for 48 hrs by flow cytometry assay (reference value: 96.9%). In kind it is functional. The note with it: read-out: Activity.
Series [18] has as its system LNCaP. Description: Induction of apoptosis in human LNCaP cells assessed as increase in caspase-3 level at 1 uM measured after 48 hrs by Western blot analysis. Format: functional, cell-based.
A short description of series [19]: Toxicity in BALB/c nude mouse xenografted with human 22Rv1 cells assessed as animal weight loss at 5 mg/kg, ip administered once every 4th day for 3 weeks. In kind it is organism-based, CWR22R. The note with it: in vivo, 504 h.
Series [20] in a line: Drug uptake in human 22Rv1 cells measured after 12 hrs by LC-MS/MS analysis. In kind it is ADME, cell-based. The note with it: cwr22r, 1 µM.
Series [21] relates to LNCaP. Description: Induction of apoptosis in human LNCaP cells assessed as early apoptotic cells at 1000 nM measured for 48 hrs by flow cytometry assay (reference value: 1.48%). In kind it is functional.
The test system of series [22] is Androgen receptor (Homo sapiens), P10275 [UNDEFINED MUTATION]. The series can be described thus: Induction of AR-V7 degradation in human 22Rv1 cells measured upto 24 hrs by Western blot analysis. Format: cell-based. The note with it: dose 1000.0 nM.
A short description of series [23]: Drug uptake in human 22Rv1 cells at 1 uM measured at 1 to 24 hrs by LC-MS/MS analysis. Format: ADME, cell-based. The conditions noted are these: cwr22r, time 1-24 hrs.
Series [24] concerns LNCaP. Description: Induction of apoptosis in human LNCaP cells assessed as late apoptotic cells at 1000 nM measured for 48 hrs by flow cytometry assay (reference value: 1.29%). Format: functional.
In series [25] the test system is LNCaP. The series can be described thus: Induction of apoptosis in human LNCaP cells assessed as increase in PARP level at 1 uM measured after 48 hrs by Western blot analysis. Format: functional, cell-based.
The test system of series [26] is CWR22R. Description: Induction of apoptosis in human 22Rv1 cells assessed as viable cells at 1000 nM measured for 48 hrs by flow cytometry assay (reference value: 91.3%). In kind it is functional. The conditions noted are these: read-out: Activity.
Series [27] deals with CWR22R. Description: Induction of apoptosis in human 22Rv1 cells assessed as early apoptotic cells at 1000 nM measured for 48 hrs by flow cytometry assay (reference value: 4.59%). Format: functional.
Series [28] concerns LNCaP. Description: Induction of cell cycle arrest in human LNCaP cells assessed as accumulation of cells at G2/M phase at 100 to 1000 nM measured for 24 hrs by flow cytometry analysis. Format: functional, cell-based. The note with it: dose 100-1000 nM.
In series [29] the test system is CWR22R. Description: Induction of apoptosis in human 22Rv1 cells assessed as late apoptotic cells at 100 nM measured for 48 hrs by flow cytometry assay (reference value: 3.96%). Format: functional.
Series [30] relates to CWR22R. Description: Induction of apoptosis in human 22Rv1 cells assessed as viable cells at 100 nM measured for 48 hrs by flow cytometry assay (reference value: 91.3%). The note with it: read-out: Activity. Format: functional.
Series [31] deals with CWR22R. Description: Induction of apoptosis in human 22Rv1 cells assessed as increase in PARP level at 1 uM measured after 48 hrs by Western blot analysis. Format: functional, cell-based.
The test system of series [32] is LNCaP. Description: Induction of apoptosis in human LNCaP cells assessed as necrotic cells at 100 nM measured for 48 hrs by flow cytometry assay (reference value: 0.35%). In kind it is functional.
Series [33] deals with CWR22R. The series can be described thus: Induction of apoptosis in human 22Rv1 cells assessed as early apoptotic cells at 100 nM measured for 48 hrs by flow cytometry assay (reference value: 4.59%). In kind it is functional.
Series [34] has as its target T1, Androgen receptor (Homo sapiens). Description: Induction of full length AR degradation in human LNCaP cells assessed as maximum degradation at 100 nM measured after 12 hrs relative to control. Format: cell-based.
Series [35] relates to LNCaP. Description: Induction of apoptosis in human LNCaP cells assessed as late apoptotic cells at 100 nM measured for 48 hrs by flow cytometry assay (reference value: 1.29%). Format: functional.
Series [36] concerns LNCaP. Description: Induction of apoptosis in human LNCaP cells assessed as necrotic cells at 1000 nM measured for 48 hrs by flow cytometry assay (reference value: 0.35%). Format: functional.
The subject of series [37] is CWR22R. The series can be described thus: Induction of apoptosis in human 22Rv1 cells assessed as increase in caspase-3 level at 1 uM measured after 48 hrs by Western blot analysis. Format: functional, cell-based.
Series [38] deals with LNCaP. The series can be described thus: Downregulation of AR-regulated TMPRSS2 protein level in human LNCaP cells measured for 48 hrs in presence of AR agonist, R1881 in charcoal stripped serum by Western blot analysis. The note with it: dose 300-1000 nM. In kind it is functional, cell-based.

Activity calls are given as the source filed them. No cut-off for these calls is given here.

By IC50 is commonly meant the concentration needed to halve the response being measured.

Regarding `CNC(=O)c1ccc(N2C(=S)N(c3ccc(C#N)c(C(F)(F)F)c3)C(=O)C2(C)C)cc1F` [ENZALUTAMIDE], in the series on LNCaP [1], the inhibition in vivo at 5 mg/kg was determined as 50%. The outcome with CWR22R [2] and in the series with CWR22R [6] was inactive. The Activity in series [3] is reported as 10%. In addition, the IC50 in the series on CWR22R [4] was more than 1000 nM; in the series on LNCaP [5], 52 nM.

`CC(C)c1cc(-c2n[nH]c(=O)n2-c2ccc(CN3CCN(CC4CCN(CC5CCN(c6ncc(C(=O)N[C@H]7CC[C@H](Oc8ccc(C#N)c(Cl)c8)CC7)cn6)CC5)CC4)CC3)cc2)c(O)cc1O`: in [7], the IC50 at 5 days turned out to be 241 nM. Besides, the Activity is 0.066% in the series on CWR22R [8]; 4.05% in the series with LNCaP [9]; 0.085% in the series with CWR22R [10]; 10% in series [3]; “Dose-Dependent Effect” with LNCaP [12]; 16.1% in the series on CWR22R [14]. Further, the Activity result with LNCaP [15] was “Dose-Dependent Effect”; in [19] it was ~ 10%; in the series on LNCaP [21] it was 4.87%; in series [22], “Dose-Dependent Effect”; with LNCaP [24] it was 6.91%; in the series with CWR22R [27], 13.5%. For the same molecule, the Activity with CWR22R [29] was 12.8%; with LNCaP [32] it was 0.32%; with CWR22R [33] it was 6.96%; in series [34] it was more than 90%; in the series with LNCaP [35] it was 3.71%; in the series with LNCaP [36], 1.13%. Besides, the Activity entry in the series with LNCaP [38] is “Dose-Dependent Effect”. Also, the viability at 1 µM amounted to 87.1% in the series on LNCaP [11] and 70.3% in the series with CWR22R [26]. In addition, the outcome in the series on CWR22R [13], with LNCaP [18], in the series with LNCaP [25], in the series on LNCaP [28], with CWR22R [31] and in the series with CWR22R [37] was Active. Further, the IC50 came to 27 nM in the series on CWR22R [4] and 33.4 nM in the series on LNCaP [5]. For the same molecule, the result in [16] was inactive. For the same molecule, the figures for the viability at 0.1 µM with LNCaP [17] and with CWR22R [30] were 91.9% and 80.1%, respectively. Further, the figures for the Drug uptake result in series [20] and in series [23] were “Dose-Dependent Effect” and “Active”, respectively.

(Values after ChEMBL document CHEMBL5380834, “Design, Synthesis, and Biological Evaluation of Androgen Receptor (AR) Antagonist-Heat Shock Protein 90 (Hsp90) Inhibitor Conjugates for Targeted Therapy of Castration-Resistant Prostate Cancer” (J Med Chem, 2023).)
